Measurements reported in PubChem BioAssay AID248 (DTP/NCI, 2004).
Where “and” joins values, the source holds several entries; their conditions need not be identical. Identical values can stand only once. Inconclusive results and toxic doses are left out. No stated cut-off is given here; in the data, active means T/C of 150% or more; inactive means T/C below 125%.

Tested on: L1210 leukemia ip in BDF1 mice, survival T/C
Assay: NCI In Vivo Anticancer Drug Screen. Data for tumor model L1210 Leukemia (intraperitoneal) in B6D2F1 (BDF1) mice
Settings: endpoint: mean survival time, higher = longer survival
In short: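 In this screen, tumor-bearing mice given compound are compared to those given vehicle, and their survival values are reported as a treated-to-control quotient.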

[1] = dose: 100.0 mg/kg/injection, schedule: Q01DX001 (ip), vehicle: saline
[2] = dose: 200.0 mg/kg/injection, schedule: Q01DX001 (ip), vehicle: saline
[3] = dose: 400.0 mg/kg/injection, schedule: Q01DX001 (ip), vehicle: saline
[4] = dose: 100.0 mg/kg/injection, schedule: Q04DX003 (ip), vehicle: Klucel (hydroxypropylcellulose) (HPC)
[5] = dose: 200.0 mg/kg/injection, schedule: Q04DX003 (ip), vehicle: Klucel (hydroxypropylcellulose) (HPC)
[6] = dose: 400.0 mg/kg/injection, schedule: Q04DX003 (ip), vehicle: Klucel (hydroxypropylcellulose) (HPC)

Measured: T/C

N/C(=N/N=C\c1ccccc1Cl)N/N=C/c1ccccc1Cl
inactive: dose: 15.0 mg/kg/injection, schedule: Q01DX Z (ip), vehicle: carboxymethylcellulose (CMC) 94 % of control | dose: 30.0 mg/kg/injection, schedule: Q01DX Z (ip), vehicle: carboxymethylcellulose (CMC) 100 % of control | dose: 60.0 mg/kg/injection, schedule: Q01DX Z (ip), vehicle: carboxymethylcellulose (CMC) 95 % of control | dose: 120.0 mg/kg/injection, schedule: Q01DX Z (ip), vehicle: carboxymethylcellulose (CMC) 94 % of control | dose: 120.0 mg/kg/injection, schedule: Q01DX Z (oral), vehicle: carboxymethylcellulose (CMC) 100 % of control | dose: 240.0 mg/kg/injection, schedule: Q01DX Z (oral), vehicle: carboxymethylcellulose (CMC) 100 % of control | dose: 960.0 mg/kg/injection, schedule: Q01DX Z (oral), vehicle: carboxymethylcellulose (CMC) 101 % of control

NC(=O)N/C=N/N=C(N)N
inactive: dose: 15.0 mg/kg/injection, schedule: Q01DX Z (ip), vehicle: methylcellulose (MC) 101 % of control | dose: 30.0 mg/kg/injection, schedule: Q01DX Z (ip), vehicle: methylcellulose (MC) 107 % of control | dose: 60.0 mg/kg/injection, schedule: Q01DX Z (ip), vehicle: methylcellulose (MC) 108 % of control | dose: 120.0 mg/kg/injection, schedule: Q01DX Z (ip), vehicle: methylcellulose (MC) 108 % of control | dose: 240.0 mg/kg/injection, schedule: Q01DX Z (ip), vehicle: methylcellulose (MC) 94 % of control | dose: 420.0 mg/kg/injection, schedule: Q01DX Z (ip), vehicle: methylcellulose (MC) 94 % of control | dose: 600.0 mg/kg/injection, schedule: Q01DX Z (ip), vehicle: methylcellulose (MC) 86 % of control

CS(=O)(=O)c1nc(Cl)nc(C(Cl)(Cl)Cl)c1Cl
inactive: dose: 25.0 mg/kg/injection, schedule: Q01DX009 (ip), vehicle: saline with Tween-80 101 % of control | dose: 50.0 mg/kg/injection, schedule: Q01DX009 (ip), vehicle: saline with Tween-80 95 % of control

CCCCCC/C(C)=N/Nc1ccc([N+](=O)[O-])cc1[N+](=O)[O-]
inactive: [1] 93 % of control | [2] 102 % of control | [3] 100 % of control

O=C(O)C1C2OC3C(OC(=O)C31)C2Cl (centres undefined)
inactive: dose: 100.0 mg/kg/injection, schedule: Q04DX002 (ip), vehicle: Klucel (hydroxypropylcellulose) (HPC) 95 % of control | dose: 200.0 mg/kg/injection, schedule: Q04DX002 (ip), vehicle: Klucel (hydroxypropylcellulose) (HPC) 92 % of control | dose: 400.0 mg/kg/injection, schedule: Q04DX002 (ip), vehicle: Klucel (hydroxypropylcellulose) (HPC) 92 % of control

NC1=NC(c2ccccc2)C2=C(N1)C(=O)N(Cc1ccccc1)C2 (centres undefined)
inactive: dose: 50.0 mg/kg/injection, schedule: Q01DX001 (ip), vehicle: carboxymethylcellulose (CMC) 98 % of control | dose: 100.0 mg/kg/injection, schedule: Q01DX001 (ip), vehicle: carboxymethylcellulose (CMC) 101 % of control | dose: 200.0 mg/kg/injection, schedule: Q01DX001 (ip), vehicle: carboxymethylcellulose (CMC) 98 % of control | dose: 400.0 mg/kg/injection, schedule: Q01DX001 (ip), vehicle: carboxymethylcellulose (CMC) 95 % of control

COc1ccc(C2(OC)Oc3ccccc3-c3nc4ccccc4nc32)cc1 (centres undefined)
inactive: dose: 50.0 mg/kg/injection, schedule: Q01DX001 (ip), vehicle: saline 95 % of control | [1] 95 % of control | [2] 87 % of control | [3] 95 % of control

O=[N+]([O-])c1ccc(/C=C/c2nccs2)o1
inactive: [4] 97 % of control | [5] 106 % of control | [6] 108 % of control

CCOC(=O)CC(COC)C(C(=O)OCC)C(=O)OCC (centres undefined)
inactive: dose: 100.0 mg/kg/injection, schedule: Q01DX009 (ip), vehicle: other 100 % of control | dose: 100.0 mg/kg/injection, schedule: Q04DX003 (ip), vehicle: other 88 % of control | dose: 200.0 mg/kg/injection, schedule: Q01DX009 (ip), vehicle: other 100 % of control | dose: 200.0 mg/kg/injection, schedule: Q04DX003 (ip), vehicle: other 94 % of control | dose: 400.0 mg/kg/injection, schedule: Q01DX009 (ip), vehicle: other 98 % of control | dose: 400.0 mg/kg/injection, schedule: Q04DX003 (ip), vehicle: other 105 % of control

CC(C)OC(C)(C=O)OC(=O)Nc1cccc2ccccc12 (centres undefined)
inactive: dose: 100.0 mg/kg/injection, schedule: Q04DX002 (sc), vehicle: olive oil, sesame oil, peanut oil 100 % of control | dose: 200.0 mg/kg/injection, schedule: Q04DX002 (sc), vehicle: olive oil, sesame oil, peanut oil 95 % of control | dose: 400.0 mg/kg/injection, schedule: Q04DX002 (sc), vehicle: olive oil, sesame oil, peanut oil 103 % of control

CC(=O)Nc1cc(C)c(C)cc1[N+](=O)[O-]
inactive: dose: 100.0 mg/kg/injection, schedule: Q01DX009 (ip), vehicle: Klucel (hydroxypropylcellulose) (HPC) 102 % of control | [4] 96 % of control | dose: 200.0 mg/kg/injection, schedule: Q01DX009 (ip), vehicle: Klucel (hydroxypropylcellulose) (HPC) 100 % of control | [5] 102 % of control | dose: 400.0 mg/kg/injection, schedule: Q01DX009 (ip), vehicle: Klucel (hydroxypropylcellulose) (HPC) 105 % of control | [6] 103 % of control

NC(=O)N/N=C/c1[nH]c(=S)[nH]c(=O)c1Cc1ccccc1
inactive: dose: 100.0 mg/kg/injection, schedule: Q04DX003 (ip), vehicle: saline with Tween-80 101 % of control | dose: 200.0 mg/kg/injection, schedule: Q04DX003 (ip), vehicle: saline with Tween-80 94 % of control | dose: 400.0 mg/kg/injection, schedule: Q04DX003 (ip), vehicle: saline with Tween-80 97 % of control

O=C(Oc1ccccc1I)c1cc(I)c(I)c(I)c1
inactive: [4] 92 % of control | [6] 94 % of control

CCC1=C(CC2NCCc3ccccc32)CC2c3cc(OC)c(OC)cc3CCN2C1 (centres undefined)
inactive: dose: 4.0 mg/kg/injection, schedule: Q04DX003 (ip), vehicle: water 103 % of control | dose: 8.0 mg/kg/injection, schedule: Q04DX003 (ip), vehicle: water 103 % of control | dose: 16.0 mg/kg/injection, schedule: Q04DX003 (ip), vehicle: water 102 % of control | dose: 32.0 mg/kg/injection, schedule: Q04DX003 (ip), vehicle: water 102 % of control | dose: 64.0 mg/kg/injection, schedule: Q04DX003 (ip), vehicle: water 102 % of control | dose: 75.0 mg/kg/injection, schedule: Q01DX001 (ip), vehicle: saline 95 % of control and 103 % of control | dose: 150.0 mg/kg/injection, schedule: Q01DX001 (ip), vehicle: saline 100 % of control and 103 % of control | dose: 300.0 mg/kg/injection, schedule: Q01DX001 (ip), vehicle: saline 100 % of control

Cc1cccc(C)c1Nc1cc(=O)[nH]c(=O)[nH]1
inactive: dose: 75.0 mg/kg/injection, schedule: Q01DX001 (ip), vehicle: saline with Tween-80 106 % of control | dose: 150.0 mg/kg/injection, schedule: Q01DX001 (ip), vehicle: saline with Tween-80 89 % of control | dose: 300.0 mg/kg/injection, schedule: Q01DX001 (ip), vehicle: saline with Tween-80 96 % of control
